Laboratory results reported in patent US9675614B2, “PRMT5 inhibitors and uses thereof” (Epizyme, Inc., priority 2012, dated 2017).

The compounds below were run against PRMT5/MEP50 (Homo sapiens (Human), UniProt O14744) (assay: PRMT5 Biochemical Assay (PRMT5/MEP50 enzyme assay on peptide substrate, 3H-SAM Flashplate)). Details: PRMT5/MEP50 biochemical assay; read-out: Biochemical IC50.
Sequence of PRMT5/MEP50 (O14744 other isoform, or with tags, fused parts or gaps): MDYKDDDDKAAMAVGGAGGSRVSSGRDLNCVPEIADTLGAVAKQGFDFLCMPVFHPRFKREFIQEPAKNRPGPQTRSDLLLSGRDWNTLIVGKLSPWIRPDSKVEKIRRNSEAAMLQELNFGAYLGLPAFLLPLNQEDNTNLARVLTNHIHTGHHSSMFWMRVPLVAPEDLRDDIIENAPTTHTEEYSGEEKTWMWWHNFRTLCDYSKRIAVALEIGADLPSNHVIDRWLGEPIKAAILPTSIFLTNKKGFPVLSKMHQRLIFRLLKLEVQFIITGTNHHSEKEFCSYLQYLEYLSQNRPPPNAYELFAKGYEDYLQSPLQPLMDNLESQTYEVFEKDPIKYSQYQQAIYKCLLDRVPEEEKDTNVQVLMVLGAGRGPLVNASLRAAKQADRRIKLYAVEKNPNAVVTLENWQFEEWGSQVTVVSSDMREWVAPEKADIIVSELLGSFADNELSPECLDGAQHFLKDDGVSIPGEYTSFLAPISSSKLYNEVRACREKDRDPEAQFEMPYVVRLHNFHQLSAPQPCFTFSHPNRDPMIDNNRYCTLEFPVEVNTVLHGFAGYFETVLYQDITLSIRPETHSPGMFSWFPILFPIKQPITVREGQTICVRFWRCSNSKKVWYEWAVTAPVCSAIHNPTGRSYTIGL
Sequence of PRMT5/MEP50 (Q9BQA1 other isoform, or with tags, fused parts or gaps partner): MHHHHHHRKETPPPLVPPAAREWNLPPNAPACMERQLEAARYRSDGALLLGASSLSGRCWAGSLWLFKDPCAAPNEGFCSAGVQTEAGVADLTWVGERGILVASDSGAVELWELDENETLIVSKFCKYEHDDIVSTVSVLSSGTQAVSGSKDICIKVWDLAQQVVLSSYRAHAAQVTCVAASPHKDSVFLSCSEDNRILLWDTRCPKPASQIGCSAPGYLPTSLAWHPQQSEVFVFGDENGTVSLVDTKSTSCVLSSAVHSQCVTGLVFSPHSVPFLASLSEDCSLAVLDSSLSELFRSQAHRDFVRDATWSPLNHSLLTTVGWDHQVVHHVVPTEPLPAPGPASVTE

Question: Which IC50 does the source give for `CN1CCC(Oc2cccc(C(=O)NCC(O)CN3CCc4ccccc4C3)c2)C1` (stereo not shown) [Compound 134] here?
Answer: < 100 nM

Question: For `CS(=O)(=O)N1CC(Nc2cc(C(=O)NC[C@H](O)CN3CCc4ccccc4C3)ccn2)C1` [Compound 278], which IC50 is on record?
Answer: < 100 nM

Question: For `CC(=O)N1CC(Nc2cc(C(=O)NC[C@H](O)CN3CCc4ccccc4C3)ccn2)C1` [Compound 279], which IC50 is on record?
Answer: < 100 nM

Question: For `O=C(NC[C@H](O)CN1CCc2ccccc2C1)c1cc(NC2CNC2)ncn1` [Compound 280], which IC50 is on record?
Answer: < 100 nM

Question: For `CN1CC(Nc2cc(C(=O)NC[C@H](O)CN3CCc4ccccc4C3)ncn2)C1` [Compound 281], which IC50 is on record?
Answer: < 100 nM

Question: `O=C(NC[C@H](O)CN1CCc2ccccc2C1)c1cc(NC2CN(CC(F)(F)F)C2)ncn1` [Compound 282] was tested. Which IC50 did it give?
Answer: < 100 nM

Question: With `CS(=O)(=O)N1CC(Nc2cc(C(=O)NC[C@H](O)CN3CCc4ccccc4C3)ncn2)C1` [Compound 283] as the compound, how does the IC50 read?
Answer: < 100 nM

Question: For `CC(=O)N1CC(Nc2cc(C(=O)NC[C@H](O)CN3CCc4ccccc4C3)ncn2)C1` [Compound 284, (S)-6-((1-acetylazetidin-3-yl)amino)-N-(3-(3,4-dihydroisoquinolin-2(1H)-yl)-2-hydroxypropyl)pyrimidine-4-carboxamide], which IC50 is on record?
Answer: < 100 nM

Question: `O=C(NC[C@H](O)CN1CCc2ccccc2C1)c1cc(OC2CCN(CC(F)(F)F)CC2)ncn1` [Compound 285] was tested. Which IC50 did it give?
Answer: 101 to 1000 nM

Question: With `CS(=O)(=O)N1CCC(Oc2cc(C(=O)NC[C@H](O)CN3CCc4ccccc4C3)ncn2)CC1` [Compound 286] as the compound, how does the IC50 read?
Answer: < 100 nM

Question: With `CC(=O)N1CCC(Oc2cc(C(=O)NC[C@H](O)CN3CCc4ccccc4C3)ncn2)CC1` [Compound 287] as the compound, how does the IC50 read?
Answer: < 100 nM

Question: With `CN1CCC(Oc2cncc(C(=O)NC[C@H](O)CN3CCc4ccccc4C3)c2)CC1` [Compound 288] as the compound, how does the IC50 read?
Answer: < 100 nM

Question: For `O=C(NC[C@H](O)CN1CCc2ccccc2C1)c1cncc(OC2CCN(CC(F)(F)F)CC2)c1` [Compound 289], which IC50 is on record?
Answer: 101 to 1000 nM

Question: With `CS(=O)(=O)N1CCC(Oc2cncc(C(=O)NC[C@H](O)CN3CCc4ccccc4C3)c2)CC1` [Compound 290] as the compound, how does the IC50 read?
Answer: < 100 nM

Question: For `CC(=O)N(C)CCN(C)c1cc(C(=O)NC[C@H](O)CN2CCc3ccccc3C2)ccn1` [Compound 291], which IC50 is on record?
Answer: < 100 nM

Question: `CN1CCC(CNc2cc(C(=O)NC[C@H](O)CN3CCc4ccccc4C3)ccn2)CC1` [Compound 292] was tested. Which IC50 did it give?
Answer: < 100 nM

Question: How did the IC50 turn out when `CC(=O)N1CC[C@@H](Nc2cccc(C(=O)NC[C@H](O)CN3CCc4ccccc4C3)c2)C1` [Compound 293] was run?
Answer: < 100 nM

Question: `O=C(NC[C@H](O)CN1CCc2ccccc2C1)c1ccc2[nH]cnc2c1` [Compound 294] was tested. Which IC50 did it give?
Answer: 101 to 1000 nM

Question: Which IC50 does the source give for `O=C(NC[C@H](O)CN1CCc2ccccc2C1)c1cccc2ccccc12` [Compound 295] here?
Answer: 101 to 1000 nM

Question: `O=C(NC[C@H](O)CN1CCc2ccccc2C1)c1cc2c(F)cccc2[nH]1` [Compound 296] was tested. Which IC50 did it give?
Answer: < 100 nM

Question: Which IC50 does the source give for `CS(=O)(=O)N1CCC(Nc2cc(C(=O)NC[C@H](O)CN3CCc4ccccc4C3)ncn2)CC1` [Compound 297] here?
Answer: < 100 nM

Question: Which IC50 does the source give for `O=C(NC[C@H](O)CN1CCc2ccccc2C1)c1cncc(NC2CCOCC2)c1` [Compound 298] here?
Answer: < 100 nM

Question: How did the IC50 turn out when `O=C(NC[C@H](O)CN1CCc2ccccc2C1)c1cncc(NC2COC2)c1` [Compound 299] was run?
Answer: < 100 nM

Question: `O=C(NC[C@H](O)CN1CCc2ccccc2C1)c1cncc(NC2CCN(CC(F)(F)F)CC2)c1` [Compound 300] was tested. Which IC50 did it give?
Answer: < 100 nM

Question: Which IC50 does the source give for `CS(=O)(=O)N1CCC(Nc2cncc(C(=O)NC[C@H](O)CN3CCc4ccccc4C3)c2)CC1` [Compound 301] here?
Answer: < 100 nM

Question: For `CC(=O)N1CCC(Nc2cncc(C(=O)NC[C@H](O)CN3CCc4ccccc4C3)c2)CC1` [Compound 302], which IC50 is on record?
Answer: < 100 nM

Question: For `O=C(NC[C@H](O)CN1CCc2ccccc2C1)c1cncc(NC2CCN(CC(F)(F)F)C2)c1` (stereo partly shown) [Compound 303], which IC50 is on record?
Answer: < 100 nM

Question: How did the IC50 turn out when `O=C(NC[C@H](O)CN1CCc2ccccc2C1)c1ccc2[nH]nnc2c1` [Compound 305] was run?
Answer: 101 to 1000 nM

Question: For `O=C(NC[C@H](O)CN1CCc2ccccc2C1)c1ccnc(NC2CCOC2)c1` (stereo partly shown) [Compound 306], which IC50 is on record?
Answer: < 100 nM

Question: With `Cc1cnc(NC2CCOCC2)cc1C(=O)NC[C@H](O)CN1CCc2ccccc2C1` [Compound 307] as the compound, how does the IC50 read?
Answer: < 100 nM

Question: Which IC50 does the source give for `Cc1cnc(NC2CCOC2)cc1C(=O)NC[C@H](O)CN1CCc2ccccc2C1` (stereo partly shown) [Compound 308] here?
Answer: < 100 nM

Question: How did the IC50 turn out when `Cc1cnc(OC2CCOCC2)cc1C(=O)NC[C@H](O)CN1CCc2ccccc2C1` [Compound 309] was run?
Answer: 101 to 1000 nM

Question: With `Cc1ncc(NC2CCNC2)cc1C(=O)NC[C@H](O)CN1CCc2ccccc2C1` (stereo partly shown) [Compound 310] as the compound, how does the IC50 read?
Answer: 101 to 1000 nM

Question: Which IC50 does the source give for `Cn1nc(NC2CCOCC2)cc1C(=O)NCC(O)CN1CCc2ccccc2C1` (stereo not shown) [Compound 311] here?
Answer: < 100 nM

Question: How did the IC50 turn out when `Cn1nc(C(=O)NCC(O)CN2CCc3ccccc3C2)cc1NC1CCOCC1` (stereo not shown) [Compound 312] was run?
Answer: 101 to 1000 nM

Question: Which IC50 does the source give for `CNCCNc1cc(C(=O)NC[C@H](O)CN2CCc3ccccc3C2)ccn1` [Compound 314] here?
Answer: < 100 nM

Question: With `CC(=O)N(C)CCNc1cc(C(=O)NC[C@H](O)CN2CCc3ccccc3C2)ccn1` [Compound 315] as the compound, how does the IC50 read?
Answer: < 100 nM

Question: Which IC50 does the source give for `O=C(NC[C@H](O)CN1CCc2ccccc2C1)c1ccnc(NCCNCC(F)(F)F)c1` [Compound 316] here?
Answer: < 100 nM

Question: For `O=C(NC[C@H](O)CN1CCc2ccccc2C1)c1cnc2ccccc2c1` [Compound 317], which IC50 is on record?
Answer: < 100 nM

Question: For `O=C(NC[C@H](O)CN1CCc2ccccc2C1)c1ccc2cc(O)ccc2c1` [Compound 318], which IC50 is on record?
Answer: < 100 nM

Question: `O=C(NC[C@H](O)CN1CCc2ccccc2C1)c1nc2cc(Br)ccc2[nH]1` [Compound 319] was tested. Which IC50 did it give?
Answer: < 100 nM

Question: With `NCCNc1cc(C(=O)NC[C@H](O)CN2CCc3ccccc3C2)ccn1` [Compound 320] as the compound, how does the IC50 read?
Answer: < 100 nM

Question: Which IC50 does the source give for `O=C(NC[C@H](O)CN1CCc2ccccc2C1)c1ccc(OC2CCN(CCO)CC2)cc1` [Compound 321] here?
Answer: < 100 nM

Question: Which IC50 does the source give for `CC(C)(C)C(=O)N1CCC(Oc2ccc(C(=O)NC[C@H](O)CN3CCc4ccccc4C3)cc2)CC1` [Compound 322] here?
Answer: < 100 nM

Question: How did the IC50 turn out when `O=C(NC[C@H](O)CN1CCc2ccccc2C1)c1ccnc(OC2CCOCC2)c1` [Compound 323] was run?
Answer: < 100 nM

Question: Which IC50 does the source give for `CN(c1cc(C(=O)NC[C@H](O)CN2CCc3ccccc3C2)ccn1)C1CCOCC1` [Compound 324] here?
Answer: < 100 nM

Question: For `Cn1nccc1Nc1cc(C(=O)NC[C@H](O)CN2CCc3ccccc3C2)ccn1` [Compound 325], which IC50 is on record?
Answer: < 100 nM

Question: `CC(C)(C)c1cc(Nc2cc(C(=O)NC[C@H](O)CN3CCc4ccccc4C3)ccn2)n[nH]1` [Compound 326] was tested. Which IC50 did it give?
Answer: < 100 nM

Question: With `O=C(NC[C@H](O)CN1CCc2ccccc2C1)c1c(O)ccc2ccccc12` [Compound 327] as the compound, how does the IC50 read?
Answer: 101 to 1000 nM

Question: Which IC50 does the source give for `O=C(NC[C@H](O)CN1CCc2ccccc2C1)c1ccc2c(c1O)NCCC2` [Compound 328] here?
Answer: 1000 to 10000 nM

Question: Which IC50 does the source give for `COCCN1CCC(Oc2ccc(C(=O)NC[C@H](O)CN3CCc4ccccc4C3)cc2)CC1` [Compound 329] here?
Answer: < 100 nM

Question: How did the IC50 turn out when `O=C(NC[C@H](O)CN1CCc2ccccc2C1)c1ccc(OC2CCN(Cc3ccccc3)CC2)cc1` [Compound 330] was run?
Answer: < 100 nM

Question: With `O=C(NC[C@H](O)CN1CCc2ccccc2C1)c1ccc(OC2CCN(Cc3ccncc3)CC2)cc1` [Compound 331] as the compound, how does the IC50 read?
Answer: < 100 nM

Question: Which IC50 does the source give for `COc1cc(C(=O)NC[C@H](O)CN2CCc3ccccc3C2)cc(NC2CCC2)n1` [Compound 332] here?
Answer: < 100 nM

Question: Which IC50 does the source give for `CN(c1cc(C(=O)NC[C@H](O)CN2CCc3ccccc3C2)ccn1)C1CCC1` [Compound 333] here?
Answer: < 100 nM

Question: With `O=C(NC[C@H](O)CN1CCc2ccccc2C1)c1ccnc(NC2CCCC2)c1` [Compound 334] as the compound, how does the IC50 read?
Answer: < 100 nM

Question: With `O=C(NC[C@H](O)CN1CCc2ccccc2C1)c1ccnc(NC2CCCCC2)c1` [Compound 335] as the compound, how does the IC50 read?
Answer: < 100 nM

Each compound was assayed on symmetric di-methyl arginine in Z-138 cells (assay: Z-138 Methylation Assay (In Cell Western for symmetric di-methyl arginine and DNA content)). Details: read-out: ICW EC50.
Assay type: cell-based
From the text: [formula] Where top and bottom are the normally allowed to float, but may be fixed at 100 or 0 respectively in a 3-parameter fit. The Hill Coefficient normally allowed to float but may also be fixed at 1 in a 3-parameter fit. Y is the % inhibition and X is the compound concentration.
RPMI/Glutamax medium, penicillin-streptomycin, heat inactivated fetal bovine serum, and D-PBS were purchased from Life Technologies, Grand Island, N.Y., USA. Odyssey blocking buffer, 800CW goat anti-rabbit IgG (H+L) antibody, and Licor Odyssey infrared scanner were purchased from Licor Biosciences, Lincoln, Nebr., USA. Symmetric di-methyl arginine antibody was purchased from EMD Millipore, Billerica, Mass., USA. 16% Paraformaldehyde was purchased from Electron Microscopy Sciences, Hatfield, Pa., USA.
Cell Treatment, in Cell Western (ICW) for Detection of Symmetric Di-Methyl Arginine and DNA Content.
Z-138 cells were seeded in assay medium at a concentration of 50,000 cells per mL to a 384-well cell culture plate with 50 μL per well. Compound (100 nL) from 384 well source plates was added directly to 384 well cell plate. Plates were incubated at 37° C., 5% CO2 for 96 hours. […] Plates were incubated at room temperature for 30 minutes then incubated at 37° C., 5% CO2 for 5 hours. After the incubation, 40 μL per well of 8% paraformaldehyde in PBS (16% paraformaldahyde was diluted to 8% in PBS) was added to each plate and incubated for 30 minutes. […] Next 30 μL per well of Odyssey blocking buffer were added to each plate and incubated 1 hour at room temperature. […]
First, the ratio for each well was determined by:
Each plate included fourteen control wells of DMSO only treatment (minimum inhibition) as well as fourteen control wells for maximum inhibition treated with 3 μM of a reference compound (Background wells). The average of the ratio values for each control type was calculated and used to determine the percent inhibition for each test well in the plate. […] Percent inhibition was determined and IC50 curves were generated using triplicate wells per concentration of compound.

Question: Which EC50 does the source give for `CN1CCC(Oc2cccc(C(=O)NCC(O)CN3CCc4ccccc4C3)c2)C1` (stereo not shown) [Compound 134] here?
Answer: 101 to 1000 nM
